Laboratory results from patent US20220112175A1, “PYRIDAZINES HERBICIDAL COMPOUNDS” (SYNGENTA CROP PROTECTION AG, priority 2019, published 2022).

How the values were obtained:
Test in all cases: Post-emergence efficacy, glasshouse pot test
Format in all cases: in vivo
[1] = tested on: Amaranthus palmeri (AMAPA); conditions: 312 h, Application rate 500 g/Ha, post-emergence spray, evaluated after 13 days, read-out: Post-emergence efficacy AMAPA (100=total damage to plant; 0=no damage to plant)
Description: (§1) Seeds of a variety of test species were sown in standard soil in pots. After cultivation for 14 days (post-emergence) under controlled conditions in a glasshouse (at 24/16° C., day/night; 14 hours light; 65% humidity), the plants were sprayed with an aqueous spray solution derived from the dissolution of the technical active ingredient formula (I) in a small amount of acetone and a special solvent and emulsifier mixture referred to as IF50 (11.12% Emulsogen EL360 TM+44.44% N-methylpyrrolidone+44.44% Dowanol DPM glycol ether), to create a 50 g/l solution which was then diluted to required concentration using 0.25% or 1% Empicol ESC70 (Sodium lauryl ether sulphate)+1% ammonium sulphate as diluent.
(§2) The test plants were then grown in a glasshouse under controlled conditions (at 24/16° C., day/night; 14 hours light; 65% humidity) and watered twice daily. After 13 days the test was evaluated (100=total damage to plant; 0=no damage to plant).
(§3) Ipomoea hederacea (IPOHE), Euphorbia heterophylla (EPHHL), Chenopodium album (CHEAL), Amaranthus palmeri (AMAPA), Lolium perenne (LOLPE), Digitaria sanguinalis (DIGSA), Eleusine indica (ELEIN), Echinochloa crus-galli (ECHCG), Setaria faberi (SETFA)

[2] = tested on: Chenopodium album (CHEAL); conditions: 312 h, Application rate 500 g/Ha, post-emergence spray, evaluated after 13 days, read-out: Post-emergence efficacy CHEAL (100=total damage to plant; 0=no damage to plant)
Description: as §1, §2, §3

[3] = tested on: Digitaria sanguinalis (DIGSA); conditions: 312 h, Application rate 500 g/Ha, post-emergence spray, evaluated after 13 days, read-out: Post-emergence efficacy DIGSA (100=total damage to plant; 0=no damage to plant)
Description: as §1, §2, §3

[4] = tested on: Echinochloa crus-galli (ECHCG); conditions: 312 h, Application rate 500 g/Ha, post-emergence spray, evaluated after 13 days, read-out: Post-emergence efficacy ECHCG (100=total damage to plant; 0=no damage to plant)
Description: as §1, §2, §3

[5] = tested on: Eleusine indica (ELEIN); conditions: 312 h, Application rate 500 g/Ha, post-emergence spray, evaluated after 13 days, read-out: Post-emergence efficacy ELEIN (100=total damage to plant; 0=no damage to plant)
Description: as §1, §2, §3

[6] = tested on: Euphorbia heterophylla (EPHHL); conditions: 312 h, Application rate 500 g/Ha, post-emergence spray, evaluated after 13 days, read-out: Post-emergence efficacy EPHHL (100=total damage to plant; 0=no damage to plant)
Description: as §1, §2, §3

[7] = tested on: Ipomoea hederacea (IPOHE); conditions: 312 h, Application rate 500 g/Ha, post-emergence spray, evaluated after 13 days, read-out: Post-emergence efficacy IPOHE (100=total damage to plant; 0=no damage to plant)
Description: as §1, §2, §3

[8] = tested on: Lolium perenne (LOLPE); conditions: 312 h, Application rate 500 g/Ha, post-emergence spray, evaluated after 13 days, read-out: Post-emergence efficacy LOLPE (100=total damage to plant; 0=no damage to plant)
Description: as §1, §2, §3

[9] = tested on: Setaria faberi (SETFA); conditions: 312 h, Application rate 500 g/Ha, post-emergence spray, evaluated after 13 days, read-out: Post-emergence efficacy SETFA (100=total damage to plant; 0=no damage to plant)
Description: as §1, §2, §3

| SMILES | pest or weed control at 500 g/ha [1] [%] | pest or weed control at 500 g/ha [2] [%] | pest or weed control at 500 g/ha [3] [%] | pest or weed control at 500 g/ha [4] [%] | pest or weed control at 500 g/ha [5] [%] | pest or weed control at 500 g/ha [6] [%] | pest or weed control at 500 g/ha [7] [%] | pest or weed control at 500 g/ha [8] [%] | pest or weed control at 500 g/ha [9] [%] |
| --- | --- | --- | --- | --- | --- | --- | --- | --- | --- |
| O=C(O)CNC(=O)C[n+]1ccc(-c2ncsn2)cn1 [Compound A23] | 100 | 100 | 40 | 50 | 70 | 90 | 90 | 50 | 80 |
| O=C(C[n+]1ccc(-c2ncsn2)cn1)NC1(C(=O)O)CC1 [Compound A24] | 100 | 90 | 100 | 80 | 70 | 90 | 90 | 50 | 80 |
| Cn1cnc(-c2cc[n+](CC(=O)NCCS(=O)(=O)[O-])nc2)n1 [Compound A5, 2-[[2-[4-(1-methyl-1,2,4-triazol-3-yl)pyridazin-1-ium-1-yl]acetyl]amino]ethanesulfonate] | 90 | 80 | 90 | 100 | 60 | 60 | 20 | 50 | 90 |
| CC(NC(=O)CC[n+]1ccc(-c2ncsn2)cn1)C(=O)O (stereo not drawn) [Compound A20] | 100 | 100 | 100 | 100 | 90 | 80 | 60 | 90 | 100 |
| O=C(O)CNC(=O)CC[n+]1ccc(-c2nccs2)cn1 [Compound A14] | 100 | 90 | 100 | 100 | 100 | 100 | 70 | 50 | 90 |
| Cn1cnc(-c2cc[n+](CSCCC(=O)O)nc2)n1 [Compound A7] | 100 | 90 | 100 | 100 | 90 | 70 | 20 | 70 | 100 |
